Laboratory results reported in US9062028B2, “Bicyclic nitrogen containing heteroaryl TGR5 receptor modulators” (Bristol-Myers Squibb Company, priority 2011, dated 2015).
pEC50: −log10 of the molar value. Structures can show the parent of a compound that is named as a salt.

target: T1, recombinant human TGR5 (Homo sapiens, UniProt Q8TDU6); test: cAMP assay (cAMP accumulation, HTRF) in CHOK1 cells stably expressing TGR5; type: cell-based; settings: CHOK1 cells stably expressing human TGR5, 30 minutes at RT, 1% DMSO
T1 construct: expressed in transfected cells
T1 sequence (Q8TDU6 1-330): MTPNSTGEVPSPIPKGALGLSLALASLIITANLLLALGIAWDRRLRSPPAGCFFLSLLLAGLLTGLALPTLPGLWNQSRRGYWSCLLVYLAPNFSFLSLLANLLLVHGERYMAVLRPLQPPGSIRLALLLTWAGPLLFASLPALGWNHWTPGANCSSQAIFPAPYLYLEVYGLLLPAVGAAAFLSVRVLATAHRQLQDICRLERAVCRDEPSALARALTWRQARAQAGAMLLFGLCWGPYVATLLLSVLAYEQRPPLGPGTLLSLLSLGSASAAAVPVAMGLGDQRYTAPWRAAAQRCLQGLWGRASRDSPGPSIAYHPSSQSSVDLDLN
Description: The in vitro modulation of recombinant human TGR5 was determined as follows.
A human TGR5 expression construct of human TGR5 was integrated into the genome of a CHOK1 cell line (Invitrogen). Once a stable CHOK1 cell line was generated, the cells were incubated for 5-10 minutes in culture medium consisting of F-12 (Invitrogen#11765-047) supplemented with 10% fetal bovine serum.
On the day of the cAMP accumulation assay, cells stably expressing the […] TGR5 construct were centrifuged at 1000 rpm for 5 minutes. The medium was aspirated and the cells were resuspended in 5 mL of assay buffer (phosphate-buffered saline with Ca^2+ and Mg^2+, Invitrogen#14040). The cells were counted using 1:2 dilution and then adjusted to 0.4-0.5×10^6 cells/mL in assay buffer, if necessary. Isobutylmethylxanthine (IBMX, Sigma#I5879) was added via a 1:5000 dilution to make a 0.1 mM final concentration and then 10 μL of the media were transferred to each well of a 384 well poly-D-lysine coated solid white plate (BD #35-6661) pre-dotted with 100 nL of with the desired concentration of compound added from a concentrated stock dissolved in dimethyl sulfoxide (DMSO) to give a final concentration of 1% DMSO in the assay. The plates were covered and incubated for 30 minutes at RT. cAMP accumulation was measured using the CisBio homogeneous time resolved fluorescence (HTRF) assay kit (#62AM2PEC) following the manufacturer's protocol. Briefly, 5 μl each of the cAMP-HTRF fluorescence detection reagents were added to each well, and the samples were incubated for at least one hour at room temperature. Fluorescence was excited at 320 nm and measured at 665 and 620 nm using the Envision instrument (Perkin Elmer), the fluorescence ratio of 665/620 was calculated and converted to nanomolar concentrations of cAMP in each well by interpolation from a cAMP standard curve. The concentration-response curves and EC50 values were calculated with a four parameter logistic curve fit equation utilizing Excel/XLfit software (Microsoft and IDBS). The EC50 value was calculated as the concentration of agonist which increased the cAMP concentration to a value halfway between the baseline and the maximum.

Row | Structure (SMILES) | pEC50
1 | Cc1cccc(OCCCC(=O)N2CCCc3c(-c4cnn(CC5(CNC(=O)NCCS(=O)(=O)O)CC5)c4)cccc32)c1C [Example 69J, 2-(3-((1-((4-(1-(4-(2,3-Dimethylphenoxy)butanoyl)-1,2,3,4-tetrahydroquinolin-5-yl)-1H-pyrazol-1-yl)methyl)cyclopropyl)methyl)ureido)ethanesulfonic acid] | 5.30
2 | Cc1cccc(OCCCC(=O)N2CCCc3c(-c4cnn(C(C)c5cccc(NC(=O)NCS(=O)(=O)O)c5)c4)cccc32)c1C (centres unmarked) [Example 81, (3-(3-(1-(4-(1-(4-(2,3-Dimethylphenoxy)butanoyl)-1,2,3,4-tetrahydroquinolin-5-yl)-1H-pyrazol-1-yl)ethyl)phenyl)ureido)methanesulfonic acid] | 6.17
3 | Cc1cccc(OCCCC(=O)N2CCCc3c(-c4cnn(C(C)c5cccc(NC(=O)NCCS(=O)(=O)O)c5)c4)cccc32)c1C (centres unmarked) [Example 82, 2-(3-(3-(1-(4-(1-(4-(2,3-Dimethylphenoxy)butanoyl)-1,2,3,4-tetrahydroquinolin-5-yl)-1H-pyrazol-1-yl)ethyl)phenyl)ureido)ethanesulfonic acid] | 6.19
4 | Cc1cccc(OCCCC(=O)N2CCCc3c(-c4cnn(Cc5cccc(NC(=O)NCC(=O)O)c5)c4)cccc32)c1C [Example 83, 2-(3-(3-((4-(1-(4-(2,3-Dimethylphenoxy)butanoyl)-1,2,3,4-tetrahydroquinolin-5-yl)-1H-pyrazol-1-yl)methyl)phenyl)ureido)acetic acid] | 6.97
5 | Cc1cccc(OCCCC(=O)N2CCCc3c(-c4cnn(CCNC(=O)NCC(=O)O)c4)cccc32)c1C [Example 110G, 2-(3-(2-(4-(1-(4-(2,3-Dimethylphenoxy)butanoyl)-1,2,3,4-tetrahydroquinolin-5-yl)-1H-pyrazol-1-yl)ethyl)ureido)acetic acid] | 5.50
6 | Cc1cccc(OCCCC(=O)N2CCCc3c(-c4cnn(CCNC(=O)C5(C(=O)O)CC5)c4)cccc32)c1C [Example 110H, 1-(2-(4-(1-(4-(2,3-Dimethylphenoxy)butanoyl)-1,2,3,4-tetrahydroquinolin-5-yl)-1H-pyrazol-1-yl)ethylcarbamoyl) cyclopropanecarboxylic acid] | 5.18
7 | Cc1cccc(OCCCC(=O)N2CCCc3c(-c4cnn(CCNC(=O)CC(=O)O)c4)cccc32)c1C [Example 110J, 3-(2-(4-(1-(4-(2,3-Dimethylphenoxy)butanoyl)-1,2,3,4-tetrahydroquinolin-5-yl)-1H-pyrazol-1-yl)ethylamino)-3-oxopropanoic acid] | 5.48
8 | Cc1cccc(OCCCC(=O)N2CCCc3c(-c4cnn(CCNC(=O)C5(C(=O)NCCS(=O)(=O)O)CC5)c4)cccc32)c1C [Example 110K, 2-(1-(2-(4-(1-(4-(2,3-Dimethylphenoxy)butanoyl)-1,2,3,4-tetrahydroquinolin-5-yl)-1H-pyrazol-1-yl)ethylcarbamoyl)cyclopropanecarboxamido) ethanesulfonic acid] | 5.30
9 | Cc1cccc(OCCCC(=O)N2CCCc3c(-c4cnn(Cc5cccc(S(=O)(=O)NCCS(=O)(=O)O)c5)c4)cccc32)c1C [Example 110T, 2-(3-((4-(1-(4-(2,3-Dimethylphenoxy)butanoyl)-1,2,3,4-tetrahydroquinolin-5-yl)-1H-pyrazol-1-yl)methyl)phenylsulfonamido) ethanesulfonic acid] | 6.22
10 | Cc1cccc(OCCCC(=O)N2CCCc3c(-c4nnn(Cc5cccc(C(=O)O)c5)n4)cccc32)c1C [Example 112, 3-((5-(1-(4-(2,3-Dimethylphenoxy)butanoyl)-1,2,3,4-tetrahydroquinolin-5-yl)-2H-tetrazol-2-yl)methyl)benzoic acid] | 6.84
11 | Cc1cccc(OCCCC(=O)N2CCCc3c(-c4ccc(OCc5cccc(C(=O)O)c5)cn4)cccc32)c1C [Example 123, 3-((6-(1-(4-(2,3-Dimethylphenoxy)butanoyl)-1,2,3,4-tetrahydroquinolin-5-yl)pyridin-3-yloxy)methyl)benzoic acid] | 5.90
12 | Cc1cccc(OCCCC(=O)N2CCCc3c(-c4cnc(OCC(=O)O)nc4)cccc32)c1C [Example 124, 2-(5-(1-(4-(2,3-Dimethylphenoxy)butanoyl)-1,2,3,4-tetrahydroquinolin-5-yl)pyrimidin-2-yloxy)acetic acid, TFA salt] | 5.30
13 | Cc1cccc(OCCCC(=O)N2CCCc3c(-c4cccc(C(=O)NCC(=O)O)c4)cccc32)c1C [Example 138, 2-(3-(1-(4-(2,3-Dimethylphenoxy)butanoyl)-1,2,3,4-tetrahydroquinolin-5-yl)benzamido)acetic acid] | 5.46
14 | Cc1cccc(OCCCC(=O)N2CCCOc3c(-c4cnn(Cc5ccc(C(=O)NCCC(=O)O)cc5)c4)cccc32)c1C [Example 142, 3-(4-((4-(5-(4-(2,3-Dimethylphenoxy)butanoyl)-2,3,4,5-tetrahydrobenzo[b][1,4]oxazepin-9-yl)-1H-pyrazol-1-yl)methyl)benzamido)propanoic acid] | 6.19
15 | Cc1c(Cl)cccc1OCCCC(=O)N1CCCOc2c(-c3cnn(Cc4cccc(C(=O)NCS(=O)(=O)O)c4)c3)cccc21 [Example 146R, (3-((4-(5-(4-(3-Chloro-2-methylphenoxy)butanoyl)-2,3,4,5-tetrahydrobenzo[b][1,4]oxazepin-9-yl)-1H-pyrazol-1-yl)methyl)benzamido) methanesulfonic acid] | 7.31
16 | Cc1cccc(OCCCC(=O)N2CCCc3c(-c4cnn(C(C)(C)C(=O)NCCS(=O)(=O)O)c4)cccc32)c1C [Example 146Y, 2-(2-(4-(1-(4-(2,3-Dimethylphenoxy)butanoyl)-1,2,3,4-tetrahydroquinolin-5-yl)-1H-pyrazol-1-yl)-2-methylpropanamido)ethanesulfonic acid] | 5.54
17 | Cc1cccc(OCCCC(=O)N2CCCc3c(-c4cccc(C(=O)NCCS(=O)(=O)O)c4)cccc32)c1C [Example 148, 2-(3-(1-(4-(2,3-Dimethylphenoxy)butanoyl)-1,2,3,4-tetrahydroquinolin-5-yl)benzamido) ethanesulfonic acid] | 5.48
18 | Cc1cccc(OCCCC(=O)N2CCCc3c(-c4cccc(COC(=O)NC[C@H](NC(=N)N)C(=O)O)c4)cccc32)c1C [Example 168F, (S)-3-((3-(1-(4-(2,3-Dimethylphenoxy)butanoyl)-1,2,3,4-tetrahydroquinolin-5-yl)benzyloxy)carbonylamino)-2-guanidinopropanoic acid] | 6.23
19 | Cc1cccc(OCCCC(=O)N2CCCc3c(-c4cnn(Cc5cccc(C(=O)NCCS(=O)(=O)O)c5)c4C)cccc32)c1C [Example 168J, 2-(3-((4-(1-(4-(2,3-Dimethylphenoxy)butanoyl)-1,2,3,4-tetrahydroquinolin-5-yl)-5-methyl-1H-pyrazol-1-yl)methyl)benzamido) ethanesulfonic acid] | 6.19
20 | Cc1cccc(OCCCC(=O)N2CCCc3c(-c4ccn(Cc5cccc(C(=O)NCCS(=O)(=O)O)c5)c4)cccc32)c1C [Example 168N] | 5.36
21 | Cc1cccc(OCCCC(=O)N2CCCc3c(-c4cnn(Cc5c(F)cc(C(=O)NCCC[C@H](NC(=N)N)C(=O)O)cc5Cl)c4)cccc32)c1C [Example 171, (S)-5-(3-Chloro-4-((4-(1-(4-(2,3-dimethylphenoxy)butanoyl)-1,2,3,4-tetrahydroquinolin-5-yl)-1H-pyrazol-1-yl)methyl)-5-fluorobenzamido)-2-guanidinopentanoic acid, TFA salt] | 7.25
22 | Cc1cccc(OCCCC(=O)N2CCCc3c(-c4cnn(Cc5c(F)cc(C(=O)NCCC(=O)O)cc5Cl)c4)cccc32)c1C [Example 176, 3-(3-Chloro-4-((4-(1-(4-(2,3-dimethylphenoxy)butanoyl)-1,2,3,4-tetrahydroquinolin-5-yl)-1H-pyrazol-1-yl)methyl)-5-fluorobenzamido) propanoic acid] | 7.33
23 | Cc1cccc(OCCCC(=O)N2CCCc3c(-c4cnn(Cc5c(F)cc(C(=O)NCC(=O)O)cc5Cl)c4)cccc32)c1C [Example 177, 2-(3-Chloro-4-((4-(1-(4-(2,3-dimethylphenoxy)butanoyl)-1,2,3,4-tetrahydroquinolin-5-yl)-1H-pyrazol-1-yl)methyl)-5-fluorobenzamido)acetic acid] | 7.32
